Measured values: a melting point compilation (Tetko et al.; mined from patent text by program, amines drawn as free bases though some values may be those of a salt)

Compound | melting point [°C]
CC(C)C1(C)CC(O)C2(C)CCC3c4ccc(O)cc4CCC3C12 (stereo not given) | 201 to 205
O=C1C(=O)c2ccccc2C2=C1SCC1(CCC(c3ccccc3)CC1)O2 (stereo not given) | 183 to 187
COc1ccc(C(=O)Cc2ccc(Br)cc2)cc1 | 142
COc1c(N2CCC(n3ccnn3)C2)c(F)c(N)c2c(=O)c(C(=O)O)cn(C3CC3)c12 (stereo not given) | 208
CC(C)N(Cc1ccc(Br)cc1)C(=S)Nc1ccccc1 | 134
COc1cc(OC)nc(Sc2cccc(C)c2C(=O)O)n1 | 131 to 132
Cc1cccc2c1N(CC(=O)N1CC3CCC(CC3)C1)C(=O)C(NC(=O)Nc1cccc(-c3nnn[nH]3)c1)N=C2c1ccccc1F (stereo not given) | 210 to 213
CCCCCCCCCNC(=O)CCC(=O)OO | 85 to 91
CCCCCCCCP(=O)(O)CCCCCCCC | 84 to 86
CCCCCS(=O)(=O)NC(=O)OCc1ccc(OCCCC)cc1Oc1ncc(C(F)(F)F)cc1Cl | 124 to 126
CS(=O)(=O)c1ccc(-c2cnn(CC(F)(F)F)c(=O)c2Oc2cccnc2)cc1 | 191 to 193
CCOC(=O)CCNC(=O)Nc1ccc([N+](=O)[O-])cc1O | 115 to 116
COC(=O)c1nn(C2CCCCO2)cc1NC(=O)c1cc(Cl)ccn1 (stereo not given) | 201 to 203
CC(=O)n1c(=O)n(-c2ccccc2)c(=O)n1C(C)=O | 169 to 170
CCOC(=O)C(C=C(C)CP(=O)(OCCCl)OCCCl)NC=O (stereo not given) | 47 to 49
CCOC(=O)c1c(Cn2cnnc2)nc2cc3c(cc2c1-c1ccc(OC)c(OC)c1)OCCO3 | 237 to 239
COC(=O)CCC(=O)Nc1cc(Cl)ccc1C(=O)OC | 80 to 84
Oc1ccc(Oc2cncnc2)cc1 | 158
CCOc1cc(C(=O)CCCC2CCCCC2)c(OC)cc1C | 37 to 38
COc1ccc2c(Cl)cc(-c3ccc(Cl)c(Cl)c3)nc2c1 | 122 to 131
CS(=O)(=O)N(CCc1ccccc1)CC(O)(Cn1cncn1)c1ccc(Cl)cc1Cl (stereo not given) | 138 to 140
COC(=O)CCSSN=C1C(=O)N(C)C(=O)N1c1ccccc1F | 81 to 84.5
CNC(=S)n1nc(Sc2ccc(C#N)cc2)nc1N | 200 to 203
O=C(O)c1cc2cccnc2nc1C(=O)O | 199 to 202
O=C(CCCN1CCC2(CC(O)c3c(Cl)cccc32)C1)c1ccc(F)cc1 (stereo not given) | 161 to 163

Compound | melting point [°C]
CC1(C)CC[C@@H](C(=O)O)[C@@H]1SC(=O)c1ccccc1 (relative stereo) | 131
O=C(CO)c1ccc(-c2ccccc2)cc1 | 130 to 132
Cc1nc2c3c(ccc2n1C)[C@@H](OCCF)[C@H](O)[C@@H](c1ccccc1)O3 | 226
O=S(c1ccc(-n2cnnn2)cc1)C(F)F (stereo not given) | 109 to 112
CCCCCCCCCCCCOc1c(OC)cc(N)c2nccc(C)c12 | 53 to 55
COc1cc2c(Oc3ccc4[nH]cc(C)c4c3)ncnc2cc1OCCCN1CCCC1 | 75 to 77
O=[N+]([O-])c1cccc(S(=O)(=O)Nc2nncs2)c1 | 189 to 192
CC1(CCN2C(=O)c3cccc([N+](=O)[O-])c3C2O)OCCO1 (stereo not given) | 130
CCNc1cc(NS(=O)(=O)c2ccc(N)cc2)nc(NCC)n1 | 245 to 250
CC(C)n1nc(-c2sc(NC(=O)c3ccccc3)nc2-c2ccccc2)ccc1=O | 126 to 129
CSc1nc(OCCN2CCCC2=O)c(C#N)c(N2CCc3ccccc3CC2)n1 | 126 to 128
COc1c(C)cnc(Cn2cc(C#CCC(C)(C)O)c3c(Cl)nc(N)nc32)c1C | 163 to 165
O=C(NCCCN1CCOCC1)c1ccccc1C(c1ccc(O)cc1)c1ccc(O)cc1 | 120 to 122
COc1ccc(N2CCN(c3c(C)c(C)c4c(c3C)C(CO)C(C)(C)O4)CC2)cc1 (stereo not given) | 140 to 141
CCn1cc(C(=O)O)c(=O)c2cc(F)c(N3CCSCC3)nc21 | 241 to 243
COC(=O)c1sc(C)c(C#N)c1N | 209 to 210
CCN(CC)c1nc(-c2ccncc2)nc2sc(C#N)c(C)c12 | 169 to 171
Cn1cc2c([C@@H]3C[C@H]3CNC(=O)c3ccc(Br)cc3)cccc2n1 | 140 to 142
O=C(Nc1ccc(C(F)(F)F)cc1)Nc1nc(OCC(F)(F)F)cc(C(F)(F)F)n1 | 197 to 199
CN(c1cc(Cl)ccc1C(=O)O)S(C)(=O)=O | 161 to 164
COc1cc(Cc2cnc(NC(=O)C(C)(C)C)nc2NC(=O)C(C)(C)C)c(C=O)c(OC)c1OC | 162 to 163
COCCOc1ccc(/C=C/C(=O)NS(=O)(=O)c2ccc(Cl)cc2)c(Oc2ncc(C(F)(F)F)cc2Cl)c1 | 182
O=C(NCc1ccon1)c1ccnc(N2CCN(Cc3ccc(F)cc3)C2=O)c1 | 127 to 129
CCCCN(CC)CC(=O)N1c2ccccc2N(C)C(=O)c2cncnc21 | 131 to 133
Cc1ccc(N)cc1Nc1nccc(-c2cncc(Br)c2)n1 | 130

Compound | melting point [°C]
CCCc1c(C(=O)NCc2ccc3c(Br)c(OCc4nnn[nH]4)ccc3c2)cnn1-c1ccccc1 | 219 to 220
CC(=O)Nc1ccc(C2=NNC(=O)Cc3cc4c(cc32)OCO4)cc1 | 177 to 180
CC(C)(C)NC(=O)N(Cc1ccccc1)CC(O)C(Cc1ccccc1)NC(=O)C(CC(N)=O)NC(=O)c1ccc2ccccc2n1 (stereo not given) | 110 to 112
CCCn1cc(-c2c(-c3ccccc3)nn3ccncc23)ccc1=O | 165 to 166
COc1ccc(S(=O)(=O)NCCCO)c(OC)c1OC | 95 to 97
O=C(O)c1cc(N2CCCCC2)ccc1[N+](=O)[O-] | 130 to 140
COc1cc(C(=O)N2CCN(C(=O)C3=Cc4cc(O)c(O)cc4CCC3)CC2)cc(OC)c1OC | 206 to 207
CCCCCCCCCCCCCCCC(O)=S | 64 to 66
CC12CCC(O)CC1CCC1C2CCC2(C)C(C(O)CO)CCC12 (stereo not given) | 210 to 212
O=C(CCCCC1(C(=O)O)CCCC1)CCCCC1(C(=O)O)CCCC1 | 99 to 103
COC(=O)c1cc([N+](=O)[O-])c(F)cc1F | 78 to 80
CCCCC1NC(C(=O)O)CS1 (mixture of isomers) | 195
Cc1nc[nH]c1C(=O)Nc1ccc(-n2nc(C3CC3)cc2C(F)(F)F)cc1 | 245 to 250
CC(=O)c1ccc(O)c(CC#N)c1 | 154 to 168
CC(C)NC(=O)c1cnn(C)c1C(=O)Nc1ccn2nc(-c3ccccc3)nc2c1 | > 250
CCOC(=O)c1ncn2c1[C@@H]1CCN1C(=O)c1c-2ccc(F)c1Cl | 161 to 163
CC(C)(C)[C@H](NC(=O)[C@@H](CC(=O)O)n1ccc(-c2ccc(-c3ccc(C(N)=O)cc3)cc2)c1)C(=O)Nc1ccncc1 | 194 to 196
CCCOc1ccccc1-c1nc2cc3c(cc2c(=O)[nH]1)NCN3CC | 147 to 149
Cn1c(=O)sc2cc(N3C[C@H](C(=O)NCCF)OC3=O)ccc21 | 201 to 203
CC(=O)c1c(-c2ccc(F)cc2)sc(-c2ccncc2)c1C | 116 to 118
CC(=O)OCc1ccccc1C(=O)C(N)=O | 86.5 to 88
CCc1cn(C2CC(O)C(CN(C)C(=O)Cc3ccccc3Br)O2)c(=O)[nH]c1=O (stereo not given) | 182 to 185
Cc1c(OCC(=O)O)ccc2c(=O)c3c(F)cccc3oc12 | 259 to 261
CSc1nn(Cc2cccc(C(F)(F)F)c2)c(N)c1C#N | 142
Cc1cc2cc(CN3CCC(CCCC(=O)N(C)C)CC3)cnc2cc1NC(=O)c1ccc(-c2ccc(F)cc2)cc1 | 194

Compound | melting point [°C]
C=CCOc1ccc(C)c2c1C(C)(C)C(=O)N2Cc1ccccc1 | 107 to 108
CCOCCn1cc(C2CCN(CCOc3ccccc3C(=O)O)CC2)c2cccnc21 | 137 to 140
Cc1ccc(S(=O)(=O)NCc2ccc(CCN3CCN(c4ccncc4)CC3)cc2)cc1 | 180 to 182
CCCC1Cc2c3c(c(C)c(C)c2C1O)OC(C(=O)O)C3 (stereo not given) | 161
Cc1ccc2sc3cc(C(C)(C)[N+](=O)[O-])ccc3c(=O)c2c1 | 170 to 173
COc1ccc2c(c1)CCN2c1cccc(C#N)c1 | 92.5 to 93.5
Cc1nc2cc(Oc3cc(-c4ccc(C(F)(F)F)cc4)ccn3)ccc2s1 | 160 to 164
CC(=O)Oc1ccc2c(c1)C(=O)CC1C2CCC2(C)C(OC(C)=O)CCC12 (stereo not given) | 171 to 175
CCCCCn1c2ccccc2c2cc(C(=O)NN3CCCCC3)ccc21 | 158 to 159
Cn1cc(-c2cc3cccnc3[nH]2)c2cc(OCC(O)CO)ccc21 (stereo not given) | 182 to 185
ClCc1ccc(OCCOc2ccccc2)cc1 | 159 to 160
O=C1c2ccccc2C=C(Cl)Cc2ccccc21 | 109 to 110
Cc1cc(C)cc(S(=O)(=O)c2nnc(C(F)(F)F)s2)c1 | 110
CC(C)NC(=O)c1ccc2[nH]cc(CCNC(=O)OCc3ccccc3)c2c1 | 136 to 137
CC(O)=C(C#N)C(=O)Oc1ccc(Cl)cc1 | 97 to 100
CCCc1c(OCCCOc2ccc3c(c2CCC)OC(CCC(=O)O)CC3=O)ccc(C(C)=O)c1O (stereo not given) | 149 to 150
CCOC(=O)c1c(O)c2cnc(N3CCCC3)nc2n(C)c1=O | 174 to 177
N#CC(Cc1c[nH]cn1)(c1ccc(Cl)cc1)c1ccc(Cl)cc1 | 152 to 153
CS(=O)(=O)c1ccc(-c2cnn3c(O)ncnc23)cc1 | > 300
CCOC(=O)Cc1ccc(NC(=O)C(COc2cccc(Cl)c2)NS(=O)(=O)c2ccc(Cl)cc2)cc1 (racemic) | 173 to 174
Cc1cc(C(N)=O)c(NC(=O)CCC(F)(F)F)s1 | 151 to 153
O=C1OCN(C(=O)OCc2ccccc2)[C@H]1Cc1ccccc1 | 85.5 to 86.5
CC1=C(C(=O)OCC2CCCO2)C(c2cccc([N+](=O)[O-])c2)C(C(=O)OCC2CCCO2)=C(C)N1 (stereo not given) | 122 to 123
O=C(c1ccc(Cl)cc1)C(F)CCCl (stereo not given) | 53
COCCOc1cc2ncnc(NC3=CC(=O)C(Oc4ccc(C)cc4)=CC3=O)c2cc1OC | 171 to 172
